Test results taken from publication PMC6384758, “Profiling and Pharmacokinetic Studies of Alkaloids in Rats After Oral Administration of Zanthoxylum nitidum Decoction by UPLC-Q-TOF-MS/MS and HPLC-MS/MS” (Molecules, 2019).
Where two headings read alike, the source gives them in different places.

Legend:
[1] = Stability of analytes in rat plasma under storage conditions; type: in vitro ADME
Procedure: The selectivity was assessed by analyzing the chromatograms of blank plasma of six different rats, a blank plasma with magnoflorine, α-allocryptopine, skimmianine and IS, and a plasma after dose. The linearity was determined by plotting the peak areas ratios (y) of each analyte to IS against the concentrations, and evaluated by least-squares linear regression. The lower limit of quantification (LLOQ) was defined as the lowest concentration point of the calibration curve (S/N > 10) with the accuracy within ±20% and precision lower than 20%. The accuracy and precision were evaluated by analyzing the six replicate QC samples on the same day (intra-day) and three consecutive days. The accuracy and precision were expressed as relative error (RE%) and relative standard deviation (RSD%), respectively. The extraction recovery was determined by comparing peak areas of the extracted QC samples with those of post-extracted spiked samples. The matrix effects was measured by calculated the analytes peak area ratios of post-extracted spiked samples to those of pure work solution. The stability was investigated by analyzing samples stability under diverse storage conditions: three freeze-thaw cycles, 8 h at 25 °C, −80 °C for 40 days and in autosampler for 24 h.

[2] = Pharmacokinetic study in rats after oral administration of Z. nitidum decoction (HPLC-MS/MS); type: in vivo, Sprague–Dawley rats; conditions: for AUC(0-t) / AUC(0-inf) / Cmax / half-life / Tmax: Sprague-Dawley
Procedure: The HPLC analysis performed on a Surveyor plus HPLC system (Thermo Fisher Scientific, Waltham, MA, USA). The separation was executed by a Thermo Accucore aq C18 column (100 × 2.1 mm, 2.6 μm) (Thermo Fisher Scientific, Waltham, MA, USA) maintained at 30 °C. The mobile phase consisted of Solvent A (0.1% formic acid solution) and Solvent B (0.1% formic acid acetonitrile). The flow rate was 0.3 mL/min. The gradient program was as follows: 5–10% B at 0–5 min; 10–100% B at 5–15 min; 100–5% B at 15–15.1 min; 5% B at 15–20 min.
MS data were achieved on a triple-quadrupole mass spectrometer: TSQ Quantum Access (Thermo Fisher Scientific, Waltham, MA, USA) with electrospray ionization (ESI) source in positive mode. The instrument parameters were as follows: spray voltage at 3000 V, sheath gas and auxiliary gas with a flow of 30 and 5 arbitrary units, capillary temperature at 350 °C, collision gas pressure at 1.0 mTorr, skimmer offset at 2 V. The selected reaction monitoring (SRM) transitions used for MS analysis were as follows: m/z 342→297 for magnoflorine, 370→188 for α-allocryptopine, 260→227 for skimmianine, 356→192 for IS; the collision energies at 15 eV for magnoflorine, 30 eV for α-allocryptopine, skimmianine and IS. The data acquisition and processing was performed with Xcalibur 2.0 software (Thermo Fisher Scientific, Waltham, MA, USA).
100 μL plasma sample, 10 μL IS solution (200 ng/mL) and 300 μL acetonitrile were added to a 1.5 mL eppendorf tube and vortex-mixed for 5 min, then centrifuged at 13,000 (15,493× g) rpm for 10 min. The supernatant was transferred into another eppendorf tube and evaporated to dryness at 35 °C in vacuum using SpeedVac Concentration ((RVC 2-18, Christ). The residue was reconstituted in 100 μL acetonitrile and water (50:50, v/v) and centrifuged at 13,000 rpm (15,493× g) for 15 min.
For pharmacokinetic study, six rats were orally administered Z. nitidum decoction at a dose of 5.4 mL kg^−1 (5.4 mL decoction equal to 10.8 g crude drug) body weight. The blood samples were collected from orbital vein before dose and 0.17, 0.33, 0.67, 1, 2, 3, 4, 6, 8, 10, 12, and 24 after dose. The blood samples were then centrifuged at 3500 rpm (1274× g) for 15 min at 4 °C. The samples were stored at −80 °C. Data analysis was performed by Drug and Statistics (DAS) 2.0 software (Mathematical Pharmacology Professional Committee of China, Shanghai, China).

[3] = rats, oral Z. nitidum decoction

SMILES: COc1ccc2c(c1O)-c1c(O)c(OC)cc3c1[C@H](C2)[N+](C)(C)CC3 [Magnoflorine, magnoflorine]
- Stability, RE (%) ([1]; rat, 5 ng/mL): −10.00%
- Stability, RE (%) ([1]; rat, 50 ng/mL): 11.03%
- Stability, RE (%) ([1]; rat, 160 ng/mL): 9.16%
- Stability, RE (%) ([1]; rat, 8 h, 5 ng/mL): −5.14%
- Stability, RE (%) ([1]; rat, 8 h, 50 ng/mL): 6.87%
- Stability, RE (%) ([1]; rat, 8 h, 160 ng/mL): 5.74%
- Stability, RE (%) ([1]; rat, 24 h, 5 ng/mL): −5.59%
- Stability, RE (%) ([1]; rat, 24 h, 50 ng/mL): 9.24%
- Stability, RE (%) ([1]; rat, 24 h, 160 ng/mL): 4.61%
- Stability, RE (%) ([1]; rat, 40 days, 5 ng/mL): 10.17%
- Stability, RE (%) ([1]; rat, 40 days, 50 ng/mL): −8.92%
- Stability, RE (%) ([1]; rat, 40 days, 160 ng/mL): 5.74%
- AUC(0-t) ([2]; rat plasma, oral Z. nitidum decoction 5.4 mL kg−1, Mean ± SD, n = 6, read-out: AUC0-t): 408 ± 91.3 ng·h/mL
- AUC(0-inf) ([2]; rat plasma, oral Z. nitidum decoction 5.4 mL kg−1, Mean ± SD, n = 6, read-out: AUC0-∞): 438 ± 106 ng·h/mL
- Cmax ([2]; rat plasma, oral Z. nitidum decoction 5.4 mL kg−1, Mean ± SD, n = 6, read-out: Cmax): 113 ± 18.8 ng/mL
- half-life ([2]; rat plasma, oral Z. nitidum decoction 5.4 mL kg−1, Mean ± SD, n = 6, read-out: T1/2 (converted)): 194 ± 78.6 min
- Tmax ([2]; rat plasma, oral Z. nitidum decoction 5.4 mL kg−1, Mean ± SD, n = 6, read-out: Tmax): 63 ± 42.6 min
- Cmax compared with that of skimmianine [2, 3]: about ten times higher
- total exposure AUC0–∞ compared among the three components (in words) [2, 3]: the largest

SMILES: COc1ccc2c(OC)c3ccoc3nc2c1OC [Skimmianine, skimmianine]
- Stability, RE (%) ([1]; rat, 1 ng/mL): 10.43%
- Stability, RE (%) ([1]; rat, 10 ng/mL): −5.95%
- Stability, RE (%) ([1]; rat, 32 ng/mL): −9.01%
- Stability, RE (%) ([1]; rat, 8 h, 1 ng/mL): −9.41%
- Stability, RE (%) ([1]; rat, 8 h, 10 ng/mL): 6.62%
- Stability, RE (%) ([1]; rat, 8 h, 32 ng/mL): 9.51%
- Stability, RE (%) ([1]; rat, 24 h, 1 ng/mL): 9.47%
- Stability, RE (%) ([1]; rat, 24 h, 10 ng/mL): −4.39%
- Stability, RE (%) ([1]; rat, 24 h, 32 ng/mL): −1.09%
- Stability, RE (%) ([1]; rat, 40 days, 1 ng/mL): 9.69%
- Stability, RE (%) ([1]; rat, 40 days, 10 ng/mL): −6.48%
- Stability, RE (%) ([1]; rat, 40 days, 32 ng/mL): −4.07%
- AUC(0-inf) ([2]; rat, in vivo, po): 17.1 ± 6.32 ng·h/mL
- AUC(0-t) ([2]; rat, in vivo, po): 11.1 ± 2.02 ng·h/mL
- Cmax ([2]; rat, in vivo, po): 8.91 ± 1.89 ng/mL
- Tmax ([2]; rat, in vivo, po): 22.8 ± 7.2 min
- half-life ([2]; rat, in vivo, po): 359 ± 97.2 min

SMILES: COc1ccc2c(c[n+](C)c3c4cc5c(cc4ccc23)OCO5)c1OC [chelerythrine]
- absorption (in words) ([2]; preliminary experiment, rats, oral Z. nitidum decoction): poor absorption

SMILES: COc1cc2c[n+](C)c3c4cc5c(cc4ccc3c2cc1OC)OCO5 [nitidine]
- absorption (in words) ([2]; rat, in vivo, po): poor absorption

SMILES: COc1ccc2c(c1OC)CN(C)CCc1cc3c(cc1C(=O)C2)OCO3 [α-allocryptopine]
- Stability, RE (%) ([1]; rat plasma, 8 h at room temperature, 5 ng/mL, n = 6): 12.53%
- Stability, RE (%) ([1]; rat plasma, 8 h at room temperature, 50 ng/mL, n = 6): −7.13%
- Stability, RE (%) ([1]; rat plasma, 8 h at room temperature, 160 ng/mL, n = 6): 3.27%
- Stability, RE (%) ([1]; rat plasma, 24 h at 4 °C, 5 ng/mL, n = 6): 2.99%
- Stability, RE (%) ([1]; rat plasma, 24 h at 4 °C, 50 ng/mL, n = 6): −6.21%
- Stability, RE (%) ([1]; rat plasma, 24 h at 4 °C, 160 ng/mL, n = 6): 7.75%
- Stability, RE (%) ([1]; rat plasma, 40 days at −80 °C, 5 ng/mL, n = 6): 8.59%
- Stability, RE (%) ([1]; rat plasma, 40 days at −80 °C, 50 ng/mL, n = 6): −4.82%
- Stability, RE (%) ([1]; rat plasma, 40 days at −80 °C, 160 ng/mL, n = 6): −6.91%
- Stability, RE (%) ([1]; rat plasma, three freeze-thaw cycle, 5 ng/mL, n = 6): 8.97%
- Stability, RE (%) ([1]; rat plasma, three freeze-thaw cycle, 50 ng/mL, n = 6): −5.58%
- Stability, RE (%) ([1]; rat plasma, three freeze-thaw cycle, 160 ng/mL, n = 6): 4.24%
- AUC(0-t) ([2]; in vivo, rat plasma, oral Z. nitidum decoction 5.4 mL kg−1, Mean ± SD, n = 6, read-out: AUC0-t): 180 ± 96.3 ng·h/mL
- AUC(0-inf) ([2]; in vivo, rat plasma, oral Z. nitidum decoction 5.4 mL kg−1, Mean ± SD, n = 6, read-out: AUC0-∞): 186 ± 98.7 ng·h/mL
- Cmax ([2]; in vivo, rat plasma, oral Z. nitidum decoction 5.4 mL kg−1, Mean ± SD, n = 6, read-out: Cmax): 100 ± 49.9 ng/mL
- half-life ([2]; in vivo, rat plasma, oral Z. nitidum decoction 5.4 mL kg−1, Mean ± SD, n = 6, read-out: T1/2 (converted)): 46.8 ± 10.2 min
- Tmax ([2]; in vivo, rat plasma, oral Z. nitidum decoction 5.4 mL kg−1, Mean ± SD, n = 6, read-out: Tmax): 28.2 ± 7.8 min
- Cmax compared with that of skimmianine [2, 3]: about ten times higher
